Like-named read-outs stand apart in the source and are kept apart here.
How the values were obtained:
hGALK1m [1] = molecular target: T1, hGALK1m (Homo sapiens, UniProt P51570, E253A/K252A); experiment: surface plasma resonance (SPR) binding; conditions: SPR at 4° C.
T1 construct: made in house; host or cells: E. coli HMS174
Protocol: Further characterization of the two lead compounds thus far, Compound 1 and Compound 3, with surface plasma resonance (SPR), confirmed that these compounds bind to hGALK1m tightly. Their KDs were 23 nM and 12 nM respectively at 4° C. (FIGS. 4A and 3B). We attempted to co-crystalize these two compounds with hGALK1m, but only succeeded with Compound 1. […] Even with a fluorine substitution at C6 position, the benzoxazole ring of Compound 1 absolutely overlapped with that of Compound A (FIG. 4D). […] The decahydroquinazoline ring was opened in Compound 1, but the hydrogen bond between ketone group and Arg 105 remained intact, and Arg 105 moved closer to the ketone group in the crystal structure with Compound 1 (FIG. 4E). In addition, the amide's nitrogen atom formed a hydrogen bond with Tyr 109 (FIG. 4E), which could clarify why substituting the closed ring with opened amide structure improves the compound's activity. The isonicotinic acid moiety extended outside of the enzyme's active center and was solvent exposed (FIG. 4C).

[2] = rat microsomal stability (RLM); conditions: for half-life: rat, rat liver microsomes
recombinant mouse GALK1 = recombinant mouse GALK1 (Mus musculus, UniProt Q9R0N0); experiment: mGALK1 biochemical activity assay (Kinase-Glo Plus, ATP depletion)
recombinant mouse GALK1, sequence (Q9R0N0 whole entry): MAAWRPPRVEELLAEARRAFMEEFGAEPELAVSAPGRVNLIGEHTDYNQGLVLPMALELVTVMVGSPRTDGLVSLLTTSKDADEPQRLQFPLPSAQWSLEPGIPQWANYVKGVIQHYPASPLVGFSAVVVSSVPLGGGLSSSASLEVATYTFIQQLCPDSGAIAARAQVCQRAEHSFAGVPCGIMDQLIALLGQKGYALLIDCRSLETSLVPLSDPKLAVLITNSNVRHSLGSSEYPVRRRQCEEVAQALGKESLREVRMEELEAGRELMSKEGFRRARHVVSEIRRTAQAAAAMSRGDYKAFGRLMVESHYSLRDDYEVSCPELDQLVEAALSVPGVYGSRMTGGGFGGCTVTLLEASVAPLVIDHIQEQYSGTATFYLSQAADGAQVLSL
Procedure, shortened: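 Recombinant GALK1 (5 nM) with 100 μM galactose; GALK1 turnover read as ATP depletion by Kinase-Glo Plus luminescence. Reaction ran 1 h at room temperature before detection reagent was added.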

recombinant human GALK1 = recombinant human GALK1 (Homo sapiens, UniProt P51570); experiment: hGALK1 biochemical activity assay (Kinase-Glo Plus, ATP depletion)
recombinant human GALK1, sequence (P51570 whole entry): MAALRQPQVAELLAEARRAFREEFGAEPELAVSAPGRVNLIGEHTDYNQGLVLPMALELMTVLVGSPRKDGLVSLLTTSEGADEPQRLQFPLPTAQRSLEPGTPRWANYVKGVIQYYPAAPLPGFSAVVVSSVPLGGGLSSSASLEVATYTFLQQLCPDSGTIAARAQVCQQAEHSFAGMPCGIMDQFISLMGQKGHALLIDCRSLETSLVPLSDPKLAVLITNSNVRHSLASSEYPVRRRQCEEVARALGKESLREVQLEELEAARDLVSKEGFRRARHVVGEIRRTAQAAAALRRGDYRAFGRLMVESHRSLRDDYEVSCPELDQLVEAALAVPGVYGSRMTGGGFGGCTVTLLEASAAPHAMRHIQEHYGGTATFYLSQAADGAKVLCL
Procedure, shortened: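 Turnover is measured as ATP depletion by Kinase-Glo Plus luminescence after a 1 h room-temperature reaction. Compounds span 11 concentrations, 57.4 μM–0.97 nM, in final 20 mM HEPES pH 8.0 with 5 mM MgCl2. The substrate solution held 35 μM ATP; the added solution held 5 nM human or mouse GALK1 and 100 μM galactose.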

[3] = aqueous kinetic solubility
PAMPA permeability = conditions: PAMPA
hGALK1m [4] = molecular target: T1, hGALK1m; experiment: in vitro hGALK1 activity assay of the structure-based optimisation (Example 12, Tables 17-20); type: biochemical; conditions: for fold improvement of potency (IC50) versus parent compound: increase in potency relative to the unsubstituted parent
[5] = Tables 2-15, 35 μM ATP, 100 μM galactose, 1 h, bracketed figure after some values is undefined and not reported, read-out: mGALK IC50
[6] = recombinant mouse GALK1, Kinase-Glo Plus ATP depletion, read-out: mGALK
[7] = recombinant human GALK1, Kinase-Glo Plus ATP depletion, read-out: hGALK
[8] = ADME P: PAMPA permeability (class), Tables 17-19, class probably colour-coded, colour lost
[9] = Tables 18-19, read-out: Max Response (%)
[10] = Tables 18-20 and text of Example 12
[11] = Tables 2-15, 35 μM ATP, 100 μM galactose, 1 h, bracketed figure after some values (e.g. −1.2) is undefined and not reported, read-out: hGALK IC50
[12] = 1 h, Table 17, read-out: Efficacy
[13] = Table 17, amide group optimization, no unit in table

T1 sequence (P51570 whole entry K252A/E253A): as the sequence (P51570 whole entry) above, with K252A, E253A counted along it

Compound | Kd (hGALK1m [1]) [µM] | Metab. Stabil. (m) ([2]; microsomal half-life) | half-life [2] [min] | IC50 (recombinant mouse GALK1; [5]) [µM] | IC50 (recombinant mouse GALK1; [6]) [µM] | IC50 (recombinant human GALK1; [7]) [µM] | Sol. [3] [µg/mL] | Papp (PAMPA permeability; [8]) [×10⁻⁶ cm/s] | Papp (PAMPA permeability; Perm. (1 × 10^−6 cm/sec)) [×10⁻⁶ cm/s] | Emax (hGALK1m [4]; [9]) [%] | IC50 (hGALK1m [4]; [10]) [µM] | fold improvement of potency (IC50) versus parent compound (hGALK1m [4]) [fold] | IC50 (recombinant human GALK1; [11]) [µM] | Metab. Stabil. (m) ([2]; microsomal stability half-life) | Sol. ([3]; aqueous kinetic solubility) [µg/mL] | Emax (hGALK1m [4]; [12]) [%] | IC50 (hGALK1m [4]; [13]) [µM] | IC50 (hGALK1m [4]; Tables 18-19 and text of Example 12) [µM] | Perm. (1 × 10^−6 cm/sec) (PAMPA permeability) | change of potency versus parent compound (in words) (hGALK1m [4])
CC1=C(C(=O)Nc2cc(C(=O)O)ccn2)C(c2ccccc2Cl)N=C(Nc2nc3ccc(F)cc3o2)N1 (racemic) [Compound 1, 2-(4-(2-chlorophenyl)-2-((6-fluorobenzo[d]oxazol-2-yl)amino)-6-methyl-1,4-dihydropyrimidine-5-carboxamido)isonicotinic acid] | 0.023 | >30 | < 10 | 4.32 | 4.32 | 0.68 | 46.1 | < 10 | < 1 | 100 | 0.26 | ~4 | – | – | – | – | – | – | – | –
CC1=C(C(=O)Nc2cc(C(=O)O)ccn2)C(c2ccccc2Cl)N=C(Nc2nc3cccc(N)c3o2)N1 (racemic) [Compound 3, 2(2-((7-aminobenzo[d]oxazol-2-yl)amino)-4-(2-chlorophenyl)-6-methyl-1,4-dihydropyrimidine-5-carboxamido)isonicotinic acid] | 0.012 | >30 | < 10 | 3.43 | 3.43 | 0.22 | >76 | < 10 | < 1 | 100 | 0.077 | 13 | 0.22 | – | – | – | – | – | – | –
CC1=C(C(=O)Nc2ccccc2)C(c2ccccc2Cl)N=C(Nc2nc3ccccc3o2)N1 (stereo not drawn) [Compound 137, 2-(benzo[d]oxazol-2-ylamino)-4-(2-chlorophenyl)-6-methyl-N-phenyl-1,4-dihydropyrimidine-5-carboxamide] | – | – | < 10 | 13.7 | 13.7 | – | – | < 10 | – | 100 | – | – | 10.9 | 24 | <1 | 57 | 6.9 | 0.97 | – | –
CC1=C(C(=O)Nc2cccc(C(=O)O)c2)C(c2ccccc2Cl)N=C(Nc2nc3ccccc3o2)N1 (stereo not drawn) [Compound 142, 3-(2-(benzo[d]oxazol-2-ylamino)-4-(2-chlorophenyl)-6-methyl-1,4-dihydropyrimidine-5-carboxamido)benzoic acid] | – | – | < 10 | 6.11 | 6.11 | 2.43 | – | < 10 | – | – | – | – | – | >30 | 59.1 | 96 | 3.1 | – | <1 1 × 10^−6 cm/sec | –
CC1=C(C(=O)Nc2ccc(C(=O)O)cc2)C(c2ccccc2Cl)N=C(Nc2nc3ccccc3o2)N1 (stereo not drawn) [Compound 143, 4-(2-(benzo[d]oxazol-2-ylamino)-4-(2-chlorophenyl)-6-methyl-1,4-dihydropyrimidine-5-carboxamido)benzoic acid] | – | – | < 10 | 6.11 | 6.11 | – | – | < 10 | – | – | – | – | 1.53 | >30 | <1 | 100 | 1.4 | – | 3.6 1 × 10^−6 cm/sec | –
CC1=C(C(=O)Nc2nnc(C)s2)C(c2ccccc2Cl)N=C(Nc2nc3ccccc3o2)N1 (stereo not drawn) [Compound 173, 2-(benzo[d]oxazol-2-ylamino)-4-(2-chlorophenyl)-6-methyl-N-(5-methyl-1,3,4-thiadiazol-2-yl)-1,4-dihydropyrimidine-5-carboxamide] | – | – | < 10 | 10.9 | – | – | – | < 10 | – | – | – | – | 5.44 | >30 | <1 | 95 | 3.9 | – | 23.75 1 × 10^−6 cm/sec | –
CC1=C(C(=O)Nc2nncs2)C(c2ccccc2Cl)N=C(Nc2nc3ccccc3o2)N1 (stereo not drawn) [Compound 205, 2-(benzo[d]oxazol-2-ylamino)-4-(2-chlorophenyl)-6-methyl-N-(1,3,4-thiadiazol-2-yl)-1,4-dihydropyrimidine-5-carboxamide] | – | – | < 10 | 7.69 | 7.69 | 3.85 | – | < 10 | – | – | – | – | 3.85 | >30 | <1 | 96 | 3.4 | – | 207.3 1 × 10^−6 cm/sec | –
CC1=C(C(=O)NCc2cncn2C)C(c2ccccc2Cl)N=C(Nc2nc3ccccc3o2)N1 (stereo not drawn) [Compound 230, 2-(benzo[d]oxazol-2-ylamino)-4-(2-chlorophenyl)-6-methyl-N-((1-methyl-1H-imidazol-5-yl)methyl)-1,4-dihydropyrimidine-5-carboxamide] | – | – | < 10 | 6.85 | 6.85 | 1.72 | – | < 10 | – | – | – | – | – | 8.8722 | 42.0 | 98 | 1.4 | – | 98.8 1 × 10^−6 cm/sec | –
CC1=C(C(=O)NCc2nccn2C)C(c2ccccc2Cl)N=C(Nc2nc3ccccc3o2)N1 (stereo not drawn) [Compound 231] | – | – | < 10 | 13.7 | 13.7 | 15.3 | – | < 10 | – | – | – | – | – | 6.415 | 23.0 | 94 | 11 | – | >1113 1 × 10^−6 cm/sec | –
CC1=C(C(=O)NCc2cncs2)C(c2ccccc2Cl)N=C(Nc2nc3ccccc3o2)N1 (stereo not drawn) [Compound 232, 2-(benzo[d]oxazol-2-ylamino)-4-(2-chlorophenyl)-6-methyl-N-(thiazol-5-ylmethyl)-1,4-dihydropyrimidine-5-carboxamide] | – | – | < 10 | 12.2 | 12.2 | 1.93 | – | < 10 | – | – | – | – | 1.93 | 6.432 | <1 | 84 | 1.2 | – | 507.4 1 × 10^−6 cm/sec | –
CC1=C(C(=O)NCc2nc3ccccc3n2C)C(c2ccccc2Cl)N=C(Nc2nc3ccccc3o2)N1 (stereo not drawn) [Compound 234, 2-(benzo[d]oxazol-2-ylamino)-4-(2-chlorophenyl)-6-methyl-N-((1-methyl-1H-benzo[d]imidazol-2-yl)methyl)-1,4-dihydropyrimidine-5-carboxamide] | – | – | < 10 | 13.7 | 13.7 | 8.63 | – | < 10 | – | – | – | – | 8.63 | 4.516 | <1 | 48 | – | – | – | significantly impaired the potency
